Test results as given in ChEMBL document CHEMBL1201861, “Genomics of Drug Sensitity in Cancer screening data, Wellcome Trust Sanger Institute”.

The compounds below were run on NCI-H446 (assay: cells). Conditions: Homo sapiens, NCI-H446.
Assay type: functional, cell-based, Homo sapiens
Description: SANGER: Inhibition of human NCI-H446 cell growth in a cell viability assay.
Work on `CCN(CC)CCNC(=O)c1c(C)[nH]c(/C=C2\C(=O)Nc3ccc(F)cc32)c1C` [SUNITINIB] yielded an IC50 of over 8 µM.

The compounds below were run on NCI-H69 (assay: cells). Conditions: Homo sapiens, NCI-H69.
Assay type: functional, cell-based, Homo sapiens
Description: SANGER: Inhibition of human NCI-H69 cell growth in a cell viability assay.
With `CCN(CC)CCNC(=O)c1c(C)[nH]c(/C=C2\C(=O)Nc3ccc(F)cc32)c1C` [SUNITINIB] the IC50 was over 8 µM.

Each compound was assayed on SNU-5 (assay: cells). Conditions: Homo sapiens, SNU-5.
Assay type: functional, cell-based, Homo sapiens
Description: SANGER: Inhibition of human NCI-SNU-5 cell growth in a cell viability assay.
`CCN(CC)CCNC(=O)c1c(C)[nH]c(/C=C2\C(=O)Nc3ccc(F)cc32)c1C` [SUNITINIB] showed an IC50 of over 8 µM.

These compounds were tested on NH-12 (assay: cells). Conditions: Homo sapiens, NH-12.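 Note: growth inhibition of NH-12 cells, read out with a cell viability assay.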
Assay type: functional, cell-based, Homo sapiens
Description: SANGER: Inhibition of human NH-12 cell growth in a cell viability assay.
Work on `CCN(CC)CCNC(=O)c1c(C)[nH]c(/C=C2\C(=O)Nc3ccc(F)cc32)c1C` [SUNITINIB] yielded an IC50 of over 8 µM.

Each compound was assayed on QIMR-WIL (assay: cells). Conditions: Homo sapiens, QIMR-WIL.
Assay type: functional, cell-based, Homo sapiens
Description: SANGER: Inhibition of human QIMR-WIL cell growth in a cell viability assay.
`CCN(CC)CCNC(=O)c1c(C)[nH]c(/C=C2\C(=O)Nc3ccc(F)cc32)c1C` [SUNITINIB] was tested, and the IC50 was 3.63 µM.

What follows are compounds tested on RXF 393 (assay: cells). Conditions: Homo sapiens, RXF 393.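 Note: growth inhibition of human RXF 393 cells, read out with a cell viability assay.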
Assay type: functional, cell-based, Homo sapiens
Description: SANGER: Inhibition of human RXF393 cell growth in a cell viability assay.
In the case of `CCN(CC)CCNC(=O)c1c(C)[nH]c(/C=C2\C(=O)Nc3ccc(F)cc32)c1C` [SUNITINIB], the IC50 is reported as over 8 µM.

These compounds were tested on Ramos-2G6-4C10 (assay: cells). Conditions: Homo sapiens, Ramos-2G6-4C10.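 Note: growth inhibition of the cell line, measured by a cell viability read-out.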
Assay type: functional, cell-based, Homo sapiens
Description: SANGER: Inhibition of human Ramos-2G6-4C10 cell growth in a cell viability assay.
For `CCN(CC)CCNC(=O)c1c(C)[nH]c(/C=C2\C(=O)Nc3ccc(F)cc32)c1C` [SUNITINIB], the IC50 was over 8 µM.

The compounds below were run on SCH (assay: cells). Conditions: Homo sapiens, SCH.
Assay type: functional, cell-based, Homo sapiens
Description: SANGER: Inhibition of human SCH cell growth in a cell viability assay.
`CCN(CC)CCNC(=O)c1c(C)[nH]c(/C=C2\C(=O)Nc3ccc(F)cc32)c1C` [SUNITINIB] showed an IC50 of over 8 µM.

What follows are compounds tested on SJSA-1 (assay: cells). Conditions: Homo sapiens, SJSA-1.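 Note: growth inhibition of human SJSA-1 cells, read out through a cell viability measurement.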
Assay type: functional, cell-based, Homo sapiens
Description: SANGER: Inhibition of human SJSA-1 cell growth in a cell viability assay.
For `CCN(CC)CCNC(=O)c1c(C)[nH]c(/C=C2\C(=O)Nc3ccc(F)cc32)c1C` [SUNITINIB], the IC50 was 7.66 µM.

These compounds were tested on SK-LMS-1 (assay: cells). Conditions: Homo sapiens, SK-LMS-1.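 Note: growth inhibition of human SK-LMS-1 cells, read out with a cell viability assay.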
Assay type: functional, cell-based, Homo sapiens
Description: SANGER: Inhibition of human SK-LMS-1 cell growth in a cell viability assay.
Compound `CCN(CC)CCNC(=O)c1c(C)[nH]c(/C=C2\C(=O)Nc3ccc(F)cc32)c1C` [SUNITINIB] has an IC50 of 3.83 µM.

These compounds were tested on SK-MEL-2 (assay: cells). Conditions: Homo sapiens, SK-MEL-2.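 Note: growth inhibition of human SK-MEL-2 cells measured with a cell viability assay.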
Assay type: functional, cell-based, Homo sapiens
Description: SANGER: Inhibition of human SK-MEL-2 cell growth in a cell viability assay.
`CCN(CC)CCNC(=O)c1c(C)[nH]c(/C=C2\C(=O)Nc3ccc(F)cc32)c1C` [SUNITINIB] was tested, and the IC50 was over 8 µM.

The compounds below were run on SK-PN-DW (assay: cells). Conditions: Homo sapiens, SK-PN-DW.
Assay type: functional, cell-based, Homo sapiens
Description: SANGER: Inhibition of human SK-PN-DW cell growth in a cell viability assay.
Compound `CCN(CC)CCNC(=O)c1c(C)[nH]c(/C=C2\C(=O)Nc3ccc(F)cc32)c1C` [SUNITINIB] has an IC50 of over 8 µM.

What follows are compounds tested on SW684 (assay: cells). Conditions: Homo sapiens, SW684.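 Note: growth inhibition of human SW684 cells, measured by a cell viability assay.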
Assay type: functional, cell-based, Homo sapiens
Description: SANGER: Inhibition of human SW684 cell growth in a cell viability assay.
`CCN(CC)CCNC(=O)c1c(C)[nH]c(/C=C2\C(=O)Nc3ccc(F)cc32)c1C` [SUNITINIB] was tested, and the IC50 was over 8 µM.

The compounds below were run on A498 (assay: cells). Conditions: Homo sapiens, A498.
Assay type: functional, cell-based, Homo sapiens
Description: SANGER: Inhibition of human A498 cell growth in a cell viability assay.
Compound `CCN(CC)CCNC(=O)c1c(C)[nH]c(/C=C2\C(=O)Nc3ccc(F)cc32)c1C` [SUNITINIB] has an IC50 of over 8 µM.

The compounds below were run on ACN (assay: cells). Conditions: Homo sapiens, ACN.
Assay type: functional, cell-based, Homo sapiens
Description: SANGER: Inhibition of human ACN cell growth in a cell viability assay.
Work on `CCN(CC)CCNC(=O)c1c(C)[nH]c(/C=C2\C(=O)Nc3ccc(F)cc32)c1C` [SUNITINIB] yielded an IC50 of over 8 µM.

What follows are compounds tested on AM-38 (assay: cells). Conditions: Homo sapiens, AM-38.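 Note: growth inhibition of AM-38 cells of human origin, read out by a cell viability assay.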
Assay type: functional, cell-based, Homo sapiens
Description: SANGER: Inhibition of human AM-38 cell growth in a cell viability assay.
`CCN(CC)CCNC(=O)c1c(C)[nH]c(/C=C2\C(=O)Nc3ccc(F)cc32)c1C` [SUNITINIB] gave an IC50 of over 8 µM.

The compounds below were run on BT-474 (assay: cells). Conditions: Homo sapiens, BT-474.
Assay type: functional, cell-based, Homo sapiens
Description: SANGER: Inhibition of human BT-474 cell growth in a cell viability assay.
With `CCN(CC)CCNC(=O)c1c(C)[nH]c(/C=C2\C(=O)Nc3ccc(F)cc32)c1C` [SUNITINIB] the IC50 was over 8 µM.

The compounds below were run on Becker (assay: cells). Conditions: Homo sapiens, Becker.
Assay type: functional, cell-based, Homo sapiens
Description: SANGER: Inhibition of human Becker cell growth in a cell viability assay.
Work on `CCN(CC)CCNC(=O)c1c(C)[nH]c(/C=C2\C(=O)Nc3ccc(F)cc32)c1C` [SUNITINIB] yielded an IC50 of over 8 µM.

These compounds were tested on C8166 (assay: cells). Conditions: Homo sapiens, C8166.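 Note: growth inhibition of human C8166 cells measured by a cell viability assay.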
Assay type: functional, cell-based, Homo sapiens
Description: SANGER: Inhibition of human C8166 cell growth in a cell viability assay.
`CCN(CC)CCNC(=O)c1c(C)[nH]c(/C=C2\C(=O)Nc3ccc(F)cc32)c1C` [SUNITINIB] was tested, and the IC50 was over 8 µM.

Each compound was assayed on TE-10 (assay: cells). Conditions: Homo sapiens, TE-10.
Assay type: functional, cell-based, Homo sapiens
Description: SANGER: Inhibition of human TE-10 cell growth in a cell viability assay.
With `CCN(CC)CCNC(=O)c1c(C)[nH]c(/C=C2\C(=O)Nc3ccc(F)cc32)c1C` [SUNITINIB] the IC50 was 2.34 µM.

The compounds below were run on TE-6 (assay: cells). Conditions: Homo sapiens, TE-6.
Assay type: functional, cell-based, Homo sapiens
Description: SANGER: Inhibition of human TE-6 cell growth in a cell viability assay.
In the case of `CCN(CC)CCNC(=O)c1c(C)[nH]c(/C=C2\C(=O)Nc3ccc(F)cc32)c1C` [SUNITINIB], the IC50 is reported as over 8 µM.

Each compound was assayed on TE-9 (assay: cells). Conditions: Homo sapiens, TE-9.
Assay type: functional, cell-based, Homo sapiens
Description: SANGER: Inhibition of human TE-9 cell growth in a cell viability assay.
Work on `CCN(CC)CCNC(=O)c1c(C)[nH]c(/C=C2\C(=O)Nc3ccc(F)cc32)c1C` [SUNITINIB] yielded an IC50 of over 8 µM.

These compounds were tested on U-87 MG (assay: cells). Conditions: Homo sapiens, U-87 MG.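 Note: growth inhibition of the cells measured with a viability assay.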
Assay type: functional, cell-based, Homo sapiens, U-87MG ATCC
Description: SANGER: Inhibition of human U-87-MG cell growth in a cell viability assay.
For `CCN(CC)CCNC(=O)c1c(C)[nH]c(/C=C2\C(=O)Nc3ccc(F)cc32)c1C` [SUNITINIB], the IC50 was over 8 µM.

The compounds below were run on UACC-257 (assay: cells). Conditions: Homo sapiens, UACC-257.
Assay type: functional, cell-based, Homo sapiens
Description: SANGER: Inhibition of human UACC-257 cell growth in a cell viability assay.
With `CCN(CC)CCNC(=O)c1c(C)[nH]c(/C=C2\C(=O)Nc3ccc(F)cc32)c1C` [SUNITINIB] the IC50 was over 8 µM.
